Columns and labels:
human parathyroid cells = assay: PTH secretion from human parathyroid cells; type: cell-based; details: at concentrations that caused mobilization of intracellular Ca2+, Fig. 13
[1] = target: T1, bovine parathyroid Ca^2+-receptor (Bos taurus, UniProt P35384); assay: Cl- current in Xenopus oocytes expressing the cloned receptor (BoPCaR 1); type: cell-based; details: neomycin 20-100 µM
T1 construct: expressed in transfected cells; host or cells: Xenopus laevis oocytes injected with cRNA from the BoPCaR 1 cDNA (plasmid pSPORT1, ATCC 75416)
T1 sequence (P35384 20-1085): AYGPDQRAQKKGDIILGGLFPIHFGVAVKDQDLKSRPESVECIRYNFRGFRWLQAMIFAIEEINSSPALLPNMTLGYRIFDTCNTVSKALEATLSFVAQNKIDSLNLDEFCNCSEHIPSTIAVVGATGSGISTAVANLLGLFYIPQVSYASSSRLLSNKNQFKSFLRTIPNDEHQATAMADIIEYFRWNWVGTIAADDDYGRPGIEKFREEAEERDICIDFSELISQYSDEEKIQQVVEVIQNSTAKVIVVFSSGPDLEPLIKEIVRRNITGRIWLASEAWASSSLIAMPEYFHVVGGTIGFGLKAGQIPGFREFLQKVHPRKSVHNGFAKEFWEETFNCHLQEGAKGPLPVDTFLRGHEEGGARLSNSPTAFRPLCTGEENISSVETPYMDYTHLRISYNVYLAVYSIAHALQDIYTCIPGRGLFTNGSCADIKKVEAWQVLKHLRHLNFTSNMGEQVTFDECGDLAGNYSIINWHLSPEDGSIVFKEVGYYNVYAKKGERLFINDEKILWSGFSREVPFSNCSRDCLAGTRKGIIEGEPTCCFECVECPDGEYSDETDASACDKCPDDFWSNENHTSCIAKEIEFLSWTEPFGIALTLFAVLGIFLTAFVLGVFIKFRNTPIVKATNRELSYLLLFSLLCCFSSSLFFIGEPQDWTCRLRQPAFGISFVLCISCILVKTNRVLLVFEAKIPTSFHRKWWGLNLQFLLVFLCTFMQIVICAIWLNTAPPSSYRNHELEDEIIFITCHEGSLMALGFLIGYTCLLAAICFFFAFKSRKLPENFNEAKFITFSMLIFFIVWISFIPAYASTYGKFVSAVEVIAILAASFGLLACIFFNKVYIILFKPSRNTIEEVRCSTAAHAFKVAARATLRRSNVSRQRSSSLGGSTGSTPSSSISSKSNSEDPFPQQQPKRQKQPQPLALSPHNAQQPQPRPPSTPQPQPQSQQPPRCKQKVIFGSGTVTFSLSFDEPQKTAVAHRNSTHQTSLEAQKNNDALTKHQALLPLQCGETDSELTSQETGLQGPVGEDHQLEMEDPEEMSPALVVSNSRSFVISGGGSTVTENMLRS

NC[C@@H]1O[C@H](O[C@H]2[C@@H](O)[C@H](O[C@@H]3[C@@H](O)[C@H](N)C[C@H](N)[C@H]3O[C@H]3O[C@H](CN)[C@@H](O)[C@H](O)[C@H]3N)O[C@@H]2CO)[C@H](N)[C@@H](O)[C@@H]1O [neomycin B]
inhibition of PTH secretion (human parathyroid cells): inhibited PTH secretion from human parathyroid cells
changes in Cl- current [1]: produced changes in Cl^- current in oocytes essentially identical to those produced by Ca^2+ or Gd^3+
